Source: article PMC9967645, “OAT3 Participates in Drug–Drug Interaction between Bentysrepinine and Entecavir through Interactions with M8—A Metabolite of Bentysrepinine—In Rats and Humans In Vitro” (Molecules, 2023)
Several values for one entry are separate records, joined by “and”; a condition that tells them apart may be missing. Identical values can stand only once. Like-named read-outs stand apart in the source and are kept apart here.

Experiments:
[1] = Renal excretion study in rats (cumulative urinary excretion, renal clearance); type: in vivo, Sprague–Dawley (SD) rats; details: for CL renal: Sprague-Dawley, rat, urine, iv, read-out: CLR (renal clearance) (converted)
Protocol: To investigate the effects of PRO on the renal excretion of Y101 and its metabolites, rats received an intravenous dose of Y101 (25 mg/kg) or Y101 + PRO (25 mg/kg for Y101 and 100 mg/kg for PRO) via the caudal vein. In order to verify the DDI between Y101 and ETV in renal excretion, rats received an intravenous dose of Y101 (25 mg/kg) and/or ETV (0.06 mg/kg) by caudal vein.
[…] Subsequently, urine samples were stored at −70 °C until analysis. The cumulative urinary excretion and renal clearance (CLR) were calculated as previously described.
Biological samples were prepared as previously described.

hOAT3 = target: T1, hOAT3 (Homo sapiens, UniProt Q8TCC7); test: In vitro uptake assay in hOAT3-HEK293 cells; details: M8 10 µM; for inhibition of the uptake of ETV in hOAT3-HEK293 cells / substrate of hOAT3 (uptake in hOAT3-HEK293 vs mock-HEK293 cells): Y101 2.0 µM; for substrate of hOAT3 (uptake in hOAT3-HEK293 vs mock-HEK293 cells): ES 10 µM
T1 sequence (Q8TCC7 1-542): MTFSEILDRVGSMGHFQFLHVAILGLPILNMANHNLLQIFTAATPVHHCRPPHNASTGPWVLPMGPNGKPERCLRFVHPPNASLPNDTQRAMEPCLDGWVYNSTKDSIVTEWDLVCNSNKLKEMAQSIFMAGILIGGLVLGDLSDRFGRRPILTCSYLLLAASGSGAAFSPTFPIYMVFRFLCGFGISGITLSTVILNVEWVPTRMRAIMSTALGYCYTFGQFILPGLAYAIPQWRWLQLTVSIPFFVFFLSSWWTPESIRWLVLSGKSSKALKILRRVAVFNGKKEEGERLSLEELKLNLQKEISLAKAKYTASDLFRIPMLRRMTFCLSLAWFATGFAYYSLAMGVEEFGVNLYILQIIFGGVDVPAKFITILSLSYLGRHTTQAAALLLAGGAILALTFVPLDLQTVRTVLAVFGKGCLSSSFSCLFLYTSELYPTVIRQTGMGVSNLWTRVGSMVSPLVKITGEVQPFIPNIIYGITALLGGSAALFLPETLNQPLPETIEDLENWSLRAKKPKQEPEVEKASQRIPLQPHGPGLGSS
Protocol: The hOAT1-HEK293, hOAT3-HEK293 and mock cells were cultured in Dulbecco modified Eagle medium (DMEM) containing 10% fetal bovine serum (FBS) and 1% penicillin/streptomycin in an atmosphere of 5% CO2 air at 37 °C. The HEK293 cells were plated on 24-well plates at a density of 5 × 10^5 cells/well. […] Uptake assay was initiated by adding 1 mL of the transporter buffer containing Y101, M8, ETV or probe substrate. Following incubation with gentle shaking, the uptake was terminated at designated time by removing the transporter buffer and washing cells three times with 1 mL of ice-cold HBSS. Next, substrates of Y101, M8, ETV, PAH and ES in cell monolayer were released by lysing the cells with 0.3 mL of 0.1% Triton X-100 for 2 h and determined by liquid chromatography–tandem mass spectrometry (LC–MS/MS). In the time-course uptake assay, Y101 (2.0 µM) and M8 (10 µM) in the presence or absence of PRO (100 µM) were measured in hOAT1-HEK293, hOAT3-HEK293 and mock cells. The concentration-dependent uptake of M8 was determined in hOAT3-HEK293 cells, and incubation time (5 min) was optimized. The uptake of M8 (10 µM) with or without ETV was examined in hOAT3-HEK293 cells. The uptake of ETV (10 µM) with or without Y101 or M8 was also measured in hOAT1-HEK293 and hOAT3-HEK293 cells, respectively. Furthermore, PAH and ES at concentrations of 10 µM were used as positive control in hOAT1-HEK293 and hOAT3-HEK293 cells, respectively. Protein concentrations were measured by the bicinchoninic acid procedure (Solarbio, Beijing, China) using bovine serum albumin as the standard.
(§1) Biological samples were prepared as previously described. Aliquots (50 µL) of urine, plasma, kidney homogenates, or cell lysates were individually mixed with 150 µL methanol and 50 µL working solution of internal standard (acetaminophen or bestatin), followed by vortexing for 1 min and centrifuging at 13,800 g for 10 min. […] The resulting supernatant (1 µL) was subjected to LC-MS/MS for the assessment of Y101, M8, M9 and ETV, respectively. […] The concentrations of ETV, Y101, M8 and M9 were determined by an AB QTRAP 5500 LC–MS/MS System (Foster City, CA, USA) as previously described. Chromatographic separation was achieved on an Infinitylab Poroshell 120 EC-C18 (50 mm × 2.1 mm, 2.7 µm, Agilent Technology Inc., CA, USA) at 40 °C. The mobile phase consisted of formic acid-acetonitrile (0.05:100, v/v) and a mixture of 1 mmol-ammonium acetate-acetonitrile-formic acid (95:5:0.05, v/v/v) at a flow rate of 0.3 mL/min. […] Analyst1.5.2 software was used for data processing and analysis.

rat kidney slices = test: In vitro uptake assay in kidney slices; type: in vitro ADME; details: for time and temperature dependence of uptake in kidney slices: 37 °C vs 4 °C, M9 1.0 µM, 5 to 30 min
Protocol: The renal cortex was cut into 300 µm slices with a ZQP-86 tissue slicer (Shanghai Zhisun Equipment Co., Ltd., Shanghai, China; surface area 0.15 cm^2). […] Next, the kidney slices were prepared as previously described. Two slices per well were placed into 37 °C buffer filled with oxygen for pre-incubation for 3 min and then gently moved into a 24-well cell culture plate containing 1 mL oxygenated buffer at 4 °C or 37 °C. The uptakes of ETV (10 µM), Y101 (2.0 µM), M8 (5.0 µM) and M9 (1.0 µM) were measured at 5, 10, 15 and 30 min after the treatment, respectively. […] Following incubation at the designated time, kidney slices were collected, rinsed with ice-cold buffer three times, and dried on filter paper. After weighing and homogenization (IKA-T 10 homogenizer; IKA, Staufen, Germany), the concentrations of Y101, M8, M9 and ETV of kidney slice homogenates were determined as in the description below.
as §1

[2] = 25 mg/kg, i.v. Y101 25 mg/kg + PRO 100 mg/kg
[3] = 25 mg/kg, i.v. Y101 25 mg/kg alone (Table 1, control of PRO study)
[4] = 25 mg/kg, i.v. Y101 25 mg/kg alone (Table 2, control of ETV study)
[5] = i.v. Y101 25 mg/kg + ETV 0.06 mg/kg
[6] = i.v. Y101 25 mg/kg + ETV 0.06 mg/kg, at 30 h post-dose
[7] = i.v. Y101 25 mg/kg + PRO 100 mg/kg, 0 to 48 h
[8] = ETV 10 µM, Y101 2.0 µM, M8 5.0 µM

SMILES	CL renal [1, 2] [mL/min/kg]	CL renal [1, 3] [mL/min/kg]	CL renal [1, 4] [mL/min/kg]	CL renal [1, 5] [mL/min/kg]	cumulative excretion in the urine [1, 6]	cumulative urinary excretion [1, 7] [%]	cumulative urinary excretion ([1]; i.v. Y101 25 mg/kg alone, at 48 h post-dose, 25 mg/kg)	inhibition of the uptake of ETV in hOAT3-HEK293 cells (hOAT3; ETV 10 µM)	substrate of hOAT3 (uptake in hOAT3-HEK293 vs mock-HEK293 cells) (hOAT3)	time and temperature dependence of uptake in kidney slices (rat kidney slices; Y101 2.0 µM, M8 5.0 µM)	effect on the uptake of ETV in kidney slices (rat kidney slices; [8])	CL renal ([1]; 0.06 mg/kg, i.v. ETV 0.06 mg/kg alone) [mL/min/kg]	cumulative excretion in urine ([1]; i.v. ETV 0.06 mg/kg alone, at 30 h post-dose) [%]	inhibition of the uptake of M8 in hOAT3-HEK293 cells (hOAT3; PRO 100 µM, ETV 10 µM)	inhibition of the uptake of M8 in kidney slices (rat kidney slices; M8 5.0 µM, PCG 0.2 and 0.5 mM, PRO 0.1 mM, PAH 0.2 and 0.5 mM, TEA 0.2 mM, 10 min, ETV 10 µM)	inhibition of the uptake of Y101 in kidney slices (rat kidney slices; Y101 2.0 µM, PCG 0.2 and 0.5 mM, PRO 0.1 mM, PAH 0.2 and 0.5 mM, TEA 0.2 mM, 10 min, ETV 10 µM)	cumulative urinary excretion ([1]; i.v. Y101 25 mg/kg alone, at 48 h post-dose)
CN(C)CCOc1ccc(C[C@H](NC(=O)c2ccccc2)C(=O)N[C@H](CO)Cc2ccccc2)cc1.Cl [Y101, N-[N-benzoyl-O-(2-dimethylaminoethyl)-l-tyrosyl]-l-phenylalaninol hydrochloride]	5.28	6.1	7.18	7.93	4.48 ± 0.742 % of the dose	3.59 ± 0.526	4.16 ± 0.843 % of the dose and 4.16 % of the dose	not inhibited	not a substrate of hOAT1 or hOAT3	time- and temperature-dependent	not affected	–	–	–	–	–	–
C=C1[C@H](CO)[C@@H](O)C[C@@H]1n1cnc2c(=O)[nH]c(N)nc21 [ETV, entecavir]	–	–	–	33.3	–	–	–	–	–	–	–	36.2	33.4 ± 1.55	inhibited the uptake of M8	significantly inhibited the uptake of M8	did not show any inhibitory effects	–
CN(C)CCOc1ccc(CC(NC(=O)c2ccccc2)C(=O)O)cc1 (stereo not shown) [M8]	82.7	100	115	106	59.7 ± 5.78 % of the dose	56.3 ± 3.00	–	not inhibited	substrate of hOAT3	temperature-dependent	not affected	–	–	–	–	–	68.1 ± 6.97 % of the dose and 68.1 % of the dose
